# Reference: PMC5587727 (Nucleic Acids Research, 2017)
# Target: hDcp2 (Homo sapiens, UniProt Q8IU60)
# Assay: In vitro RNA decapping assay with hDcp2
# Assay type: biochemical
# Conditions: RNA capped with the analogue; 15 min incubation; 100 ng capped RNA, 630 nM hDcp2
row,Decapping susceptibility (% of RNA decapping),Compound
1,74 ± 3%,"CO[C@H]1[C@@H](O)[C@H]([n+]2cn(C)c3c(=O)[nH]c(N)nc32)O[C@@H]1COP(=O)([O-])OP(=O)(O)OP(=O)(O)OC[C@H]1O[C@@H](n2cnc3c(=O)[nH]c(N)nc32)[C@H](O)[C@@H]1O [m2^7,3′-OGpppG]"
2,82 ± 2%,Cn1c[n+]([C@@H]2O[C@H](COP(=O)(O)OP(=O)([O-])OP(=O)(O)OC[C@H]3O[C@@H](n4cnc5c(=O)[nH]c(N)nc54)[C@H](O)[C@@H]3O)[C@@H](O)[C@H]2O)c2nc(N)[nH]c(=O)c21 [m^7GpppG]
